Experiments:
Assay type in all cases: in vivo
[1] = system: Phaedon cochleariae; experiment: Phaedon cochleariae spray test; conditions: 168 h, application rate 100 g/ha, larvae, after 7 days, read-out: efficacy
Description: (§1) [table] To produce a suitable active ingredient formulation, 1 part by weight of active ingredient is dissolved with the specified parts by weight of solvent and made up to the desired concentration with water containing an emulsifier concentration of 1000 ppm. To produce further test concentrations, the formulation is diluted with emulsifier-containing water. Discs of Chinese cabbage leaves (Brassica pekinensis) are sprayed with an active ingredient formulation of the desired concentration and, after drying, populated with larvae of the mustard beetle (Phaedon cochleariae). After 7 days, the efficacy in % is determined. 100% means that all the beetle larvae have been killed; 0% means that no beetle larvae have been killed.

[2] = system: Myzus persicae; experiment: Myzus persicae oral test; conditions: 120 h, application rate 4 ppm, after 5 days, read-out: efficacy
Description: [table] To produce a suitable active ingredient formulation, 1 part by weight of active ingredient is dissolved with the stated parts by weight of solvent and made up to the desired concentration with water. 50 μl of the active ingredient formulation are transferred into microtitre plates and made up to a final volume of 200 μl with 150 μl of IPL41 insect medium (33%+15% sugar). Subsequently, the plates are sealed with parafilm, which a mixed population of green peach aphids (Myzus persicae) within a second microtitre plate is able to puncture and imbibe the solution. After 5 days, the efficacy in % is determined. 100% means that all the aphids have been killed; 0% means that no aphids have been killed.

[3] = system: Myzus persicae; experiment: Myzus persicae spray test; conditions: foliar, 120 h, application rate 100 g/ha, Chinese cabbage leaf discs, after 5 days, read-out: efficacy
Description: as §1, with “pekinensis) infested by all stages of the green peach aphid (Myzus persicae)” for “pekinensis)”, “concentration.” for “concentration and, after drying, populated with larvae of the mustard beetle (Phaedon cochleariae).”, “5” for “7”, “aphids” for “beetle larvae”

Compound	pest or weed control at 100 g/ha [1] [%]	pest or weed control at 4 ppm [2] [%]	pest or weed control at 100 g/ha [3] [%]
CCS(=O)(=O)c1c(-c2nc3cc(C(F)(F)F)ncc3n2C)nc(-c2cc(C(F)(F)F)nn2C)n1C [Example I-068]	100	100	
CCS(=O)(=O)c1c(-c2nc3cc(C(F)(F)F)nnc3n2C)nc(Br)n1C [Example I-056]		100	
CCS(=O)(=O)c1c(-c2nc3cc(C(F)(F)F)ncc3n2C)nc(C2=CCCCC2)n1C [Example I-071]			90
CCS(=O)(=O)c1c(-c2nc3cc(C(F)(F)F)ncc3n2C)nc(C#N)n1C [Example I-045, 5-(Ethylsulfonyl)-1-methyl-4-[3-methyl-6-(trifluoromethyl)-3H-imidazo[4,5-c]pyridin-2-yl]-1H-imidazole-2-carbonitrile]		100	
CCS(=O)(=O)c1c(-c2nc3cc(C(F)(F)F)ncc3n2C)nc(-c2cnn(CC(F)(F)F)c2)n1C [Example I-067]	100	100	100
CCS(=O)(=O)c1c(-c2nc3cc(C(F)(F)F)ncc3n2C)nc(Br)n1C(C)C [Example I-002]		100	
CCS(=O)(=O)c1c(-c2nc3cc(C(F)(F)F)ncc3n2C)nc(-c2cncs2)n1C [Example I-051]		100	90
CCS(=O)(=O)c1c(-c2nc3cc(C(F)(F)F)ncc3n2C)nc(-c2ccc(Cl)c(C#N)c2)n1C [Example I-079]	83	100	90
CCS(=O)(=O)c1c(-c2nc3cc(C(F)(F)F)ncc3n2C)nc(C(=S)NC)n1C [Example I-047]		100	100
CCS(=O)(=O)c1c(-c2nc3cc(C(F)(F)F)ncc3n2C)nc(Br)n1C [Example I-004, 2-[2-Bromo-5-(ethylsulfonyl)-1-methyl-1H-imidazol-4-yl]-3-methyl-6-(trifluoromethyl)-3H-imidazo[4,5-c]pyridine]		100	
CCc1nc(-c2nc3cc(C(F)(F)F)ncc3n2C)c(S(=O)(=O)CC)n1C [Example I-084]		100	90
CCS(=O)(=O)c1c(-c2nc3cc(C(F)(F)F)ncc3n2C)nc(-c2cnc(Cl)n2C)n1C [Example I-059]	100	100	100
CCS(=O)(=O)c1c(-c2nc3cc(C(F)(F)F)ncc3n2C)nc(-c2cnc(C)s2)n1C [Example I-058]		100	90
CCS(=O)(=O)c1c(-c2nc3cc(C(F)(F)F)ncc3n2C)nc(-c2cccn2C)n1C [Example I-032]		100	
CCS(=O)(=O)c1c(-c2nc3cc(C(F)(F)F)ncc3n2C)nc(C(=S)N(C)C)n1C [Example I-048]		100	90
CCS(=O)(=O)c1c(-c2nc3cc(C(F)(F)F)ncc3n2C)nc(C2=CCC(C(F)(F)F)CC2)n1C (centres unmarked) [Example I-072]		100	
CC(C)S(=O)(=O)c1c(-c2nc3cc(C(F)(F)F)ncc3n2C)nc(-c2ccn(C)n2)n1C [Example I-061]	100	100	100

Compound	pest or weed control at 100 g/ha [1] [%]	pest or weed control at 4 ppm [2] [%]	pest or weed control at 100 g/ha [3] [%]
CCS(=O)(=O)c1c(-c2nc3cc(C(F)(F)F)ncc3n2C)nc(CCC2CC2)n1C [Example I-085, 2-[2-(2-Cyclopropylethyl)-5-(ethylsulfonyl)-1-methyl-1H-imidazol-4-yl]-3-methyl-6-(trifluoromethyl)-3H-imidazo[4,5-c]pyridine]		100	90
CCS(=O)(=O)c1c(-c2nc3cc(C(F)(F)F)ncc3n2C)nc(-c2ccc(CC#N)cc2)n1C [Example I-065]		100	100
CCS(=O)(=O)c1c(-c2nc3cc(C(F)(F)F)ncc3n2C)nc(-c2cccs2)n1C [Example I-044]		100	
CCS(=O)(=O)c1c(-c2nc3cc(C(F)(F)F)ncc3n2C)nc(-c2cnccc2F)n1C [Example I-017]		100	100
CCS(=O)(=O)c1c(-c2nc3cc(C(F)(F)F)ncc3n2C)nc(-c2nccn2C)n1C [Example I-053]		100	
CCS(=O)(=O)c1c(-c2nc3cc(C(F)(F)F)ncc3n2C)nc(-c2cncn2C)n1C [Example I-052]		100	
CCSc1c(-c2nc3cc(C(F)(F)F)ncc3n2C)nc(C(=O)OC)n1C [Example I-035, Methyl 5-(ethylsulfanyl)-1-methyl-4-[3-methyl-6-(trifluoromethyl)-3H-imidazo[4,5-c]pyridin-2-yl]-1H-imidazole-2-carboxylate]	83		
CCS(=O)(=O)c1c(-c2nc3cc(C(F)(F)F)ncc3n2C)nc(C)n1C [Example I-064]	83	100	100
CCS(=O)(=O)c1c(-c2nc3cc(C(F)(F)F)ncc3n2C)nc(-c2ccc(C#N)c(C(F)(F)F)c2)n1C [Example I-080]	100	100	
CCS(=O)(=O)c1c(-c2nc3cc(C(F)(F)F)ncc3n2C)nc(C(=O)NCC(F)(F)F)n1C [Example I-037]		90	
CCS(=O)(=O)c1c(-c2nc3cc(C(F)(F)F)ncc3n2C)nc(-n2cccn2)n1C [Example I-026]	100	100	90
CCS(=O)(=O)c1c(-c2nc3cc(C(F)(F)F)ncc3n2C)nc(-c2cn[nH]c2)n1C [Example I-034]		100	90
CCS(=O)(=O)c1c(-c2nc3cc(C(F)(F)F)ncc3n2C)nc(-n2ccnc2)n1C [Example I-028]	100	100	90
CCS(=O)(=O)c1c(-c2nc3cc(C(F)(F)F)ncc3n2C)nc(-c2ccnn2C)n1C [Example I-062]	100	100	100
CCS(=O)(=O)c1c(-c2nc3cc(C(F)(F)F)ncc3n2C)nc(-c2cc(Cl)sc2Cl)n1C [Example I-031]		100	
CCS(=O)(=O)c1c(-c2nc3cc(C(F)(F)F)ncc3n2C)nc(C(=O)OC)n1C [Example I-036, Methyl 5-(ethylsulfonyl)-1-methyl-4-[3-methyl-6-(trifluoromethyl)-3H-imidazo[4,5-c]pyridin-2-yl]-1H-imidazole-2-carboxylate]	100	100	100
